The record followed here is patent publication US20240190880A1 (THE REGENTS OF THE UNIVERSITY OF MICHIGAN, priority 2021, published 2024).

For the first test, the target named is T1, ER (Homo sapiens, UniProt P03372).
T1 construct: host or cells: T47D and MCF7 human breast cancer cells
T1 sequence (P03372 1-595): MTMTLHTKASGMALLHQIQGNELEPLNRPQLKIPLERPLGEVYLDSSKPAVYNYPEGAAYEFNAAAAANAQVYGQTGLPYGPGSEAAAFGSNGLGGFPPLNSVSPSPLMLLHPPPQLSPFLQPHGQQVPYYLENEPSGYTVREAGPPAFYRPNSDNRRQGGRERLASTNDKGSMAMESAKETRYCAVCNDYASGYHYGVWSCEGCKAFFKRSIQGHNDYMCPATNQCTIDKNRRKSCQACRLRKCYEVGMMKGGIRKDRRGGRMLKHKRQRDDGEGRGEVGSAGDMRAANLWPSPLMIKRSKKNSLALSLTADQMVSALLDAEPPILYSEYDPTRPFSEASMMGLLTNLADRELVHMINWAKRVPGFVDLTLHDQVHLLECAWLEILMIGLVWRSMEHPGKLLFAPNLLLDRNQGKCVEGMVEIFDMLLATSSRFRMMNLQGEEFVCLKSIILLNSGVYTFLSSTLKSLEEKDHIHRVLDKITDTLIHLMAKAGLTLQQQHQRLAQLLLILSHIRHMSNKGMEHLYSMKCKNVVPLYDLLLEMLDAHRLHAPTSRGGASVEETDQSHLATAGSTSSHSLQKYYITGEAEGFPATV
The test can be described thus: ER degradation activity, in-cell western blot analysis in T47D cells. The class given is cell-based. As to conditions: 16 hours, Table A does not say which cell line (T47D or MCF7), read-out: Potency (DC50). Put shortly: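 ER protein remaining after 16 h compound exposure is quantified in T47D cells by in-cell western, with a no-primary-antibody background control. Values are percentages of DMSO-treated signal.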
For the compound `O=C1CCC(N2C(=O)c3cc4c(cc3C2=O)CN(C(=O)CN2CCC3(CCN(c5ccc([C@@H]6c7ccc(O)cc7CC[C@@H]6c6ccccc6)cc5)CC3)C2)C4)C(=O)N1` (mixture of isomers) [E 140, Rac-2-(2,6-dioxopiperidin-3-yl)-6-(2-(8-(4-((1R,2S)-6-hydroxy-2-phenyl-1,2,3,4-tetrahydronaphthalen-1-yl)phenyl)-2,8-diazaspiro[4.5]decan-2-yl)acetyl)-6,7-dihydropyrrolo[3,4-f]isoindole-1,3(2H,5H)-dione], the 50% degradation concentration (DC50) (commonly the midpoint of the concentration-degradation curve) is > 100 nM.
For `C[C@@H]1Cc2c([nH]c3ccccc23)[C@@H](c2c(F)cc(N3CCC(CN4CCC(C(=O)N5Cc6cc7c(cc6C5)C(=O)N(C5CCC(=O)NC5=O)C7=O)CC4)C3)cc2F)N1CC(F)F` (stereo partly drawn) [E 57, 6-(1-((1-(4-((1R,3R)-2-(2,2-difluoroethyl)-3-methyl-2,3,4,9-tetrahydro-1H-pyrido[3,4-b]indol-1-yl)-3,5-difluorophenyl)pyrrolidin-3-yl)methyl)piperidine-4-carbonyl)-2-(2,6-dioxopiperidin-3-yl)-6,7-dihydropyrrolo[3,4-f]isoindole-1,3(2H,5H)-dione], the DC50 is < 10 nM.
Same read-out and setting: to `C[C@@H]1Cc2c([nH]c3ccccc23)[C@@H](c2c(F)cc(C3CCC(C(=O)N4CC(CN5Cc6cc7c(cc6C5)C(=O)N(C5CCC(=O)NC5=O)C7=O)C4)CC3)cc2F)N1CC(F)F` (stereo partly drawn) [E250, 6-((1-(4-(4-((1R,3R)-2-(2,2-difluoroethyl)-3-methyl-2,3,4,9-tetrahydro-1H-pyrido[3,4-b]indol-1-yl)-3,5-difluorophenyl)cyclohexane-1-carbonyl)azetidin-3-yl)methyl)-2-(2,6-dioxopiperidin-3-yl)-6,7-dihydropyrrolo[3,4-f]isoindole-1,3(2H,5H)-dione] belongs < 10 nM; to `O=C1CCC(N2C(=O)c3cc4c(cc3C2=O)CN(CC2CN(CC3CCN(c5ccc([C@@H]6c7ccc(O)cc7CC[C@@H]6c6ccc(F)cc6)cc5)CC3)C2)C4)C(=O)N1` (stereo partly drawn) [E 274, 2-(2,6-dioxopiperidin-3-yl)-6-((1-((1-(4-((1R,2S)-2-(4-fluorophenyl)-6-hydroxy-1,2,3,4-tetrahydronaphthalen-1-yl)phenyl)piperidin-4-yl)methyl)azetidin-3-yl)methyl)-6,7-dihydropyrrolo[3,4-f]isoindole-1,3(2H,5H)-dione], > 100 nM; to `O=C1CCC(N2C(=O)c3cc4c(cc3C2=O)CN(CC(=O)N2CC3(CCN(c5ccc([C@@H]6c7ccc(O)cc7CC[C@@H]6c6ccccc6)cc5F)CC3)C2)C4)C(=O)N1` (mixture of isomers) [E 173, Rac-2-(2,6-dioxopiperidin-3-yl)-6-(2-(7-(2-fluoro-4-((1R,2S)-6-hydroxy-2-phenyl-1,2,3,4-tetrahydronaphthalen-1-yl)phenyl)-2,7-diazaspiro[3.5]nonan-2-yl)-2-oxoethyl)-6,7-dihydropyrrolo[3,4-f]isoindole-1,3(2H,5H)-dione], > 100 nM.
On to `O=C1CCC(N2C(=O)c3cc4c(cc3C2=O)CN(C(=O)[C@H]2CC[C@@H](CN3CC(Nc5ccc([C@@H]6c7ccc(O)cc7CC[C@@H]6c6ccccc6)cc5)C3)CC2)C4)C(=O)N1` (stereo partly drawn) [E 364, 2-(2,6-dioxopiperidin-3-yl)-6-((1S,4s)-4-((3-((4-((1R,2S)-6-hydroxy-2-phenyl-1,2,3,4-tetrahydronaphthalen-1-yl)phenyl)amino)azetidin-1-yl)methyl)cyclohexane-1-carbonyl)-6,7-dihydropyrrolo[3,4-f]isoindole-1,3(2H,5H)-dione], for which the DC50 was in the range of 10 to 100 nM.
`C[C@@H]1Cc2c([nH]c3ccccc23)[C@@H](c2c(F)cc(N3CCC4(CCN(C(=O)CN5Cc6cc7c(cc6C5)C(=O)N(C5CCC(=O)NC5=O)C7=O)CC4)C3)cc2F)N1CC(F)F` (stereo partly drawn) [E 135, 6-(2-(2-(4-((1R,3R)-2-(2,2-difluoroethyl)-3-methyl-2,3,4,9-tetrahydro-1H-pyrido[3,4-b]indol-1-yl)-3,5-difluorophenyl)-2,8-diazaspiro[4.5]decan-8-yl)-2-oxoethyl)-2-(2,6-dioxopiperidin-3-yl)-6,7-dihydropyrrolo[3,4-f]isoindole-1,3(2H,5H)-dione]: the DC50 was < 10 nM.
As to `C[C@@H]1Cc2c([nH]c3ccccc23)[C@@H](c2ccc(N3CCC4(CCN(C(=O)CN5Cc6cc7c(cc6C5)C(=O)N(C5CCC(=O)NC5=O)C7=O)CC4)CC3)cn2)N1CC(F)F` (stereo partly drawn) [E 280, 6-(2-(9-(6-((1S,3R)-2-(2,2-difluoroethyl)-3-methyl-2,3,4,9-tetrahydro-1H-pyrido[3,4-b]indol-1-yl)pyridin-3-yl)-3,9-diazaspiro[5.5]undecan-3-yl)-2-oxoethyl)-2-(2,6-dioxopiperidin-3-yl)-6,7-dihydropyrrolo[3,4-f]isoindole-1,3(2H,5H)-dione], the DC50 is > 100 nM.
For the compound `C[C@@H]1Cc2c([nH]c3ccccc23)[C@@H](c2ccc(N3CCC(CN4CCC(N5Cc6cc7c(cc6C5)C(=O)N(C5CCC(=O)NC5=O)C7=O)CC4)CC3)cc2)N1CC(F)F` (stereo partly drawn) [E 264, 6-(1-((1-(4-((1R,3R)-2-(2,2-difluoroethyl)-3-methyl-2,3,4,9-tetrahydro-1H-pyrido[3,4-b]indol-1-yl)phenyl)piperidin-4-yl)methyl)piperidin-4-yl)-2-(2,6-dioxopiperidin-3-yl)-6,7-dihydropyrrolo[3,4-f]isoindole-1,3(2H,5H)-dione], the DC50 lay in the range of 10 to 100 nM.
As for `O=C1CCC(N2C(=O)c3cc4c(cc3C2=O)CN(C(=O)CN2CCC[C@H](Oc3ccc([C@@H]5c6ccc(O)cc6CC[C@@H]5c5ccc(F)cc5)cc3)C2)C4)C(=O)N1` (mixture of isomers) [E 159, Rac-2-(2,6-dioxopiperidin-3-yl)-6-(2-((S)-3-(4-((1R,2S)-2-(4-fluorophenyl)-6-hydroxy-1,2,3,4-tetrahydronaphthalen-1-yl)phenoxy)piperidin-1-yl)acetyl)-6,7-dihydropyrrolo[3,4-f]isoindole-1,3(2H,5H)-dione], the half-maximal degradation concentration (DC50) is > 100 nM.
Turning to `O=C1CCC(N2C(=O)c3cc4c(cc3C2=O)CN(CC(=O)N2CCC3(CC2)CCN(c2ccc([C@@H]5c6ccc(B(O)O)cc6CC[C@@H]5c5ccccc5)cc2)CC3)C4)C(=O)N1` (mixture of isomers) [E 180, Rac-((5R,6S)-5-(4-(9-(2-(6-(2,6-dioxopiperidin-3-yl)-5,7-dioxo-3,5,6,7-tetrahydropyrrolo[3,4-f]isoindol-2(1H)-yl)acetyl)-3,9-diazaspiro[5.5]undecan-3-yl)phenyl)-6-phenyl-5,6,7,8-tetrahydronaphthalen-2-yl)boronic acid], the DC50 lay in the range of 10 to 100 nM.
Turning to `O=C1CCC(N2C(=O)c3cc4c(cc3C2=O)CN(C(=O)[C@H]2CC[C@H](CN3CC(Nc5ccc([C@@H]6c7ccc(O)cc7CC[C@@H]6c6ccccc6)cc5)C3)CC2)C4)C(=O)N1` (stereo partly drawn) [E 363, 2-(2,6-dioxopiperidin-3-yl)-6-((1R,4r)-4-((3-((4-((1R,2S)-6-hydroxy-2-phenyl-1,2,3,4-tetrahydronaphthalen-1-yl)phenyl)amino)azetidin-1-yl)methyl)cyclohexane-1-carbonyl)-6,7-dihydropyrrolo[3,4-f]isoindole-1,3(2H,5H)-dione], the half-maximal degradation concentration (DC50) was < 10 nM.

Staying with this test, now noted: compounds 16 hours, Table A does not say whether T47D or MCF7, read-out: Potency (DC50).
As to `C[C@@H]1Cc2c(ccc3[nH]ncc23)[C@@H](c2c(F)cc(NC3CN(C(=O)[C@H]4CC[C@H](N5Cc6cc7c(cc6C5)C(=O)N(C5CCC(=O)NC5=O)C7=O)CC4)C3)cc2F)N1CC(F)F` (stereo partly shown) [E 425], the DC50 was < 10 nM.
On to `O=C1CCC(N2C(=O)c3cc4c(cc3C2=O)CN(CC2CC3(CCN(C(=O)c5ccc([C@@H]6c7ccc(O)cc7CC[C@@H]6c6ccccc6)cc5)CC3)C2)C4)C(=O)N1` (stereo partly drawn) [E 494, 2-(2,6-dioxopiperidin-3-yl)-6-((7-(4-((1R,2S)-6-hydroxy-2-phenyl-1,2,3,4-tetrahydronaphthalen-1-yl)benzoyl)-7-azaspiro[3.5]nonan-2-yl)methyl)-6,7-dihydropyrrolo[3,4-f]isoindole-1,3(2H,5H)-dione], for which the 50% degradation concentration (DC50) is > 100 nM.
Consider `O=C1CCC(N2C(=O)c3cc4c(cc3C2=O)CN(CC2CCC3(CC2)CCN(C(=O)c2ccc([C@@H]5c6ccc(O)cc6CC[C@@H]5c5ccccc5)cc2)CC3)C4)C(=O)N1` (stereo partly drawn) [E 492, 2-(2,6-dioxopiperidin-3-yl)-6-((3-(4-((1R,2S)-6-hydroxy-2-phenyl-1,2,3,4-tetrahydronaphthalen-1-yl)benzoyl)-3-azaspiro[5.5]undecan-9-yl)methyl)-6,7-dihydropyrrolo[3,4-f]isoindole-1,3(2H,5H)-dione], for which the 50% degradation concentration (DC50) was > 100 nM.
Regarding `C[C@@H]1Cc2c([nH]c3ccccc23)[C@@H](c2cnc(N3CC4(CCC(CN5Cc6cc7c(cc6C5)C(=O)N(C5CCC(=O)NC5=O)C7=O)CC4)C3)nc2)N1CC(C)(C)F` (stereo partly drawn) [E 471, 2-(2,6-dioxopiperidin-3-yl)-6-((2-(5-((1R,3R)-2-(2-fluoro-2-methylpropyl)-3-methyl-2,3,4,9-tetrahydro-1H-pyrido[3,4-b]indol-1-yl)pyrimidin-2-yl)-2-azaspiro[3.5]nonan-7-yl)methyl)-6,7-dihydropyrrolo[3,4-f]isoindole-1,3(2H,5H)-dione], the half-maximal degradation concentration (DC50) is 10 to 100 nM.
